{"source": "paper PMC10261046", "about": "“Mechanism of small molecule inhibition of Plasmodium falciparum myosin A informs antimalarial drug design” (Nature Communications, 2023)", "key": {"[1]": {"target": "T1, PfMyoA (Plasmodium falciparum myosin A) (Plasmodium falciparum, UniProt Q8IDR3)", "experiment": "X-ray crystal structure ([…] Å) and affinity measurement for nucleotide-free PfMyoA; also basal and actin-activated ATPase inhibition (IC50 […])", "type": "binding", "design": "gene MyoA; with PfELC and PfMTIP light chains"}, "[2]": {"target": "T2, PfMyoA triple mutant (Plasmodium falciparum, UniProt Q8IDR3, F270Y/F471A/F645H)", "T2 construct": "gene MyoA; full length PfMyoA heavy chain triple mutant, co-expressed with light chains PfELC and PfMTIP; with PfELC and PfMTIP light chains", "T2 sequence (Q8I4W8 whole entry, stated change not applied)": "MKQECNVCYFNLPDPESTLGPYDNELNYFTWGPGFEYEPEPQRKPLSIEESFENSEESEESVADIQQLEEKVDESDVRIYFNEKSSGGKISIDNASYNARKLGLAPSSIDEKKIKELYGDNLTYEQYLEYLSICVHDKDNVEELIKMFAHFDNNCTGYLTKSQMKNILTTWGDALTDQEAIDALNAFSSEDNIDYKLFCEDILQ", "T2 sequence (Q8IDR3 whole entry, stated change not applied)": "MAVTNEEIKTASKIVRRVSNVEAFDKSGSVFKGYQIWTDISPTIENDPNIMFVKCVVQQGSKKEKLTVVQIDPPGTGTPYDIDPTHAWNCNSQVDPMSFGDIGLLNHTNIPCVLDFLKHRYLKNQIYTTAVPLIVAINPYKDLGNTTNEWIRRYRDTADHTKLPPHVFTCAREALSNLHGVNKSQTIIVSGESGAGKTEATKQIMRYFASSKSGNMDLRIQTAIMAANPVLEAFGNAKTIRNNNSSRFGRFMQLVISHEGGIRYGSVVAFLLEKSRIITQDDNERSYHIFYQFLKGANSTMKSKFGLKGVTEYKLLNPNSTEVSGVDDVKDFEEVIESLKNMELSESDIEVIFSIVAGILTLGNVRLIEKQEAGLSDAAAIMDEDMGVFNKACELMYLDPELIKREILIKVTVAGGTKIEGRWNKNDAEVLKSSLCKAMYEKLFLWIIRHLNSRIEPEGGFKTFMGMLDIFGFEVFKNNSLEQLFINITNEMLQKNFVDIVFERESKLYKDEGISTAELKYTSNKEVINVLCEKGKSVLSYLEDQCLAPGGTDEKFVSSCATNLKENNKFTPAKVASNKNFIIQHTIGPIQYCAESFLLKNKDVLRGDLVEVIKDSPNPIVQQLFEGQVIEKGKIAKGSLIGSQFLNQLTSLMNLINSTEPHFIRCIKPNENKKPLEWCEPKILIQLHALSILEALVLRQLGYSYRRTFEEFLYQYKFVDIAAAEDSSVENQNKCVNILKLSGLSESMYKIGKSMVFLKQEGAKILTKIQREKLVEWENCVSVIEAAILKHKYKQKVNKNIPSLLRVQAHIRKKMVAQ", "T2 sequence (Q8IJM4 whole entry, stated change not applied, further chain)": "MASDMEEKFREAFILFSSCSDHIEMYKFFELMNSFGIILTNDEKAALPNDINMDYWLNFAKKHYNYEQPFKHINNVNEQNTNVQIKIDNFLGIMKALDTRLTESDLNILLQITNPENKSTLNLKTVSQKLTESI", "experiment": "basal ATPase assay (NADH-linked)", "type": "biochemical"}, "[3]": {"target": "T1, PfMyoA (Plasmodium falciparum myosin A)", "experiment": "X-ray crystal structure, […] Å", "type": "binding", "design": "gene MyoA; with PfELC and PfMTIP light chains"}, "[4]": {"target": "T1, PfMyoA (Plasmodium falciparum myosin A)", "experiment": "X-ray crystal structure, […] Å", "type": "binding", "design": "gene MyoA; with PfELC and PfMTIP light chains", "remark": "listed apart in the source"}, "[5]": {"target": "T1, PfMyoA (Plasmodium falciparum myosin A)", "experiment": "stopped-flow fluorescence transient kinetics; Kd printed in text is in the presence of […] KNX-002", "type": "binding", "design": "gene MyoA; full length PfMyoA heavy chain with light chains; with PfELC and PfMTIP light chains"}}}
{"compound": "COc1ccc(C2(NCc3c[nH]nc3-c3cccs3)CC2)cc1", "note": "[KNX-002]", "values": [{"measurement": "Kd", "setting": "[1]", "value": 8.6, "unit": "µM"}, {"measurement": "IC50", "setting": "[2]", "value": 52, "unit": "µM"}]}
{"compound": "Nc1ncnc2c1ncn2[C@@H]1O[C@H](CO[P@](=O)(O)O[P@](=O)(O)O[P@@](=O)(O)S)[C@@H](O)[C@H]1O", "note": "[ATPγS]", "values": [{"measurement": "X-ray crystal structure, 2.2 Å", "setting": "[3]", "value": "unhydrolyzed Mg.ATPyS occupies the active site of PfMyoA/ATPγS/KNX-002"}]}
{"compound": "Nc1ncnc2c1ncn2[C@@H]1O[C@H](COP(=O)(O)OP(=O)(O)O)[C@@H](O)[C@H]1O", "note": "[ADP]", "values": [{"measurement": "X-ray crystal structure, 2.03 Å", "setting": "[4]", "value": "the substrate was hydrolyzed in PfMyoA/ATPγS/Apo leaving only Mg.ADP in the active site"}]}
{"compound": "mant-ADP", "values": [{"measurement": "Kd", "setting": "[5]", "value": 3.5, "unit": "µM"}]}
